From patent publication US12297240B2, “Peptide” (Kyoto University, priority 2015, dated 2025)

Legend:
ddY mice [1] = experiment: Elevated plus-maze test (EPM); format: in vivo
From the text: The elevated plus-maze includes two open arms (25×5 cm) and two closed arms (25×5×15 cm), which are joined to a central platform 50 cm high above the floor (see FIG. 3A). Because the closed arms are surrounded by walls, a mouse can safely walk in the closed arms in spite of the elevated position. On the other hand, because the open arms are not surrounded by walls, a mouse walking along the open arms feels anxious that it may fall from the elevated position. Thus, the more time the mouse spends in the open arms, or the greater the number of entries into the open arms, the less anxious the mouse feels. Thus, the anxiolytic activity is determined based on these indices.
Each mouse was placed on a portion of the central platform facing one of the open arms 30 minutes after the administration, and the test was started. During the 5-minute test time, the cumulative time spent in the open arms (time in open arms), the number of visits to the open arms (visit to open arms), and the total number of visits to any of the arms (total visits) were recorded. The percentage of time spent in the open arms and the percentage of the number of visits to the open arms were calculated as indices of anxiety.

ddY mice [2] = experiment: Open field test; format: in vivo
Description: Similar to the case of the elevated plus-maze test, the higher the percentage of exploratory behaviors of a mouse in the center portion of a circle, the less anxious the mouse feels. Thus, the anxiolytic activity is determined based on this index.
Each mouse was placed in an open field 30 minutes after the administration, and the test was started. The percentage of exploratory behaviors in the center portion of the circle (the time spent in the center circle (open field) (Time in 12 cm circle) and the percentage of the number of visits to the center circle (Visits in 12 cm circle)) during the 5-minute test time were evaluated.

ddY mice [3] = experiment: Forced swim test; format: in vivo; conditions: 1 mg/kg or more orally; doses tested 0.3, 1 mg/kg (Example 5, FIG. 8)
Description: The test was carried out (0 minutes) 30 minutes after administration of a test substance, and the immobility time during the period from 0 to 8 minutes was measured (FIG. 2).
(§1) As in the tail suspension test, when an antidepressant drug, such as imipramine, is administered, the immobility time is reduced. Thus, when a reduction in the immobility time is observed, it can be evaluated that the test substance has an antidepressant-like effect. Immobility is considered a despair state; therefore, a reduction in the immobility time also serves as an index for improvement of a despair state, i.e., enhancement of motivation.

ddY mice [4] = experiment: Tail suspension test; format: in vivo
Description: (§2) The test was carried out (0 minutes) 30 minutes after administration of a test substance, and the immobility time during the period from 0 to 6 minutes was measured (FIG. 2).
as §1, with “When” for “As in the tail suspension test, when”

[5] = test system: serotonin 5-HT1A, dopamine D1, and GABAA receptors; experiment: Tail suspension test in combination with receptor antagonists (mechanism of action); format: in vivo, mice; conditions: 0.3 mg/kg p.o. with WAY100135 10 mg/kg, SCH23390 30 μg/kg or bicuculline 30 mg/kg (Example 8, FIG. 11)
Description: as §2
(§3) The tail suspension test was performed using mice to which 30 mg/kg of the thermolysin digest of β-CG was orally administered (p.o.) in combination with each of the antagonists of various receptors. Three kinds of antagonists, i.e., WAY100135, which is an antagonist of the serotonin 5-HT1A receptor (dose: 10 mg/kg), SCH23390, which is an antagonist of the dopamine D1 receptor (dose: 30 μg/kg), and bicuculline, which is an antagonist of the GABA-A receptor (dose: 30 mg/kg), were used.
as §3, with “which 0.3” for “which 30”, “the peptide LSSTQAQQSY (SEQ ID NO: 1)” for “the thermolysin digest of β-CG”

## LSSTQAQQSY (Designed peptide) [10-residue peptide from thermolysin digest of soybean β-conglycinin; synthesized by a standard method]
ddY mice [1]; 1 mg/kg orally, doses tested 0.1, 0.3, 1 mg/kg (Example 10, FIG. 14)
  percentage of time spent in the open arms: significantly increased
ddY mice [1]; 0.1, 0.3 or 1 mg/kg (Example 10, FIG. 14)
  total number of entries (amount of activities): no significant difference
ddY mice [2]; 1 mg/kg orally (Example 11, FIG. 15)
  number of visits to the center circle (open field): significantly increased
ddY mice [2]; 1 mg/kg orally, doses tested 0.1, 0.3, 1 mg/kg (Example 11, FIG. 15)
  time spent in the center circle (open field): significantly increased
ddY mice [2]; 0.1, 0.3 or 1 mg/kg (Example 11, FIG. 15)
  amount of activities: no significant difference
ddY mice [3]
  immobility time: significantly reduced
ddY mice [4]; 0.3 mg/kg or more orally, doses tested 0.1, 0.3, 1, 3 mg/kg (Example 4, FIG. 7)
  immobility time: significantly reduced
ddY mice [4]; 0.3 mg/kg orally, C-terminal variants (Example 12, FIG. 16)
  immobility time: strongest immobility time reducing effect
ddY mice [4]; 0.3 mg/kg orally, structure-activity relationships (Example 6, FIG. 9)
  immobility time: strongest immobility time reducing effect
[5]
  reduction in the immobility time in combination with antagonists: significantly suppressed
